# From patent US12570641B2, “Solid forms of a CDK4 inhibitor” (Pfizer Inc., priority 2020, dated 2026)
# Experiments:
# Format in all cases: physicochemical
# [1] = Thermal stability by Differential Scanning Calorimetry (DSC)
# Procedure: Modulated Differential scanning calorimetry (DSC) measurements were performed with Discovery DSC (TA instruments) equipped with a refrigerated cooling accessory. All the experiments were performed in standard/Tzero aluminum pans. The cell constant was determined using indium and temperature calibration was performed using indium and tin as standards. All the measurements were done under continuous dry nitrogen purge (50 mL/min). Approximately 1-5 mg of solid sample was weighed into a Tzero aluminum pan, sealed non-hermetically and heated from −40° C. to 220° C. at 10° C./min heating rate. The experimental data were analyzed using commercially available software (TA Universal Analysis 2000/Trios software, TA Instruments).
# (§1) Thermal stability data were obtained through thermogravimetric analysis (TGA) according to General Method 4, and Differential Scanning Calorimetry (DSC) scan according to General Method 5A.
# [2] = Moisture sorption (hygroscopicity), water sorption and desorption
# Procedure: Water sorption and desorption studies were conducted on an automated vapor sorption analyzer (TA instruments Q5000 SA). The microbalance was calibrated using a 100 mg standard weight. The relative humidity (RH) sensor was calibrated at 5.0, 11.3, 32.8, 52.8, 75.3, and 84.3% RH (25° C.) using saturated salt solutions. Approximately 10-20 mg of the powder sample was placed in the quartz sample holder and dried at 3% RH at 60° C. The attainment of equilibrium was assumed when the weight change of the sample was <0.001 wt % in 5 min or by a maximum equilibration time of 300 minutes. […] Again, the attainment of equilibrium was assumed when the weight change of the sample was <0.001 wt % in 5 min or by a maximum equilibration time of 300 minutes. The weight gain at 60% RH is based on the weight after the initial drying step.
# Water sorption and desorption studies of PF-07220060 monohydrate (Form 2), prepared as described in Example 2, were conducted according to General Method 6.
# Water sorption and desorption studies of PF-07220060 hydrate (Form 1), prepared as described in Example 5B, were conducted according to General Method 6.
# Comparative hygroscopicity experiments were performed using moisture sorption analysis according to General Method 6. PF-07220060 Forms 1, 2, 6, and 8 were evaluated using moisture sorption at 25° C., 60% RH. A form change at the completion of the run was not detected for any of the forms by PXRD.
# [3] = Solid-state photostability (2x ICH light exposure)
# Procedure: Solid-state photostability of PF-07220060 monohydrate (Form 2) was evaluated after light exposure equivalent to 2× International Conference on Harmonisation (ICH) guidelines.
# [4] = Accelerated solid state chemical/humidity stability by UPLC; settings: for % impurity RRT 0.89 / % impurity RRT 1.31: UPLC
# Procedure: Accelerated solid state chemical stability and photostability of PF-07220060 monohydrate (Form 2) was investigated. Solid state chemical/humidity stability of PF-07220060 monohydrate (Form 2) was evaluated by UPLC (ultra performance liquid chromatography) analysis after storage at 70° C./5% RH and 70° C./75% RH for one week, and at 40° C./5% RH and 40° C./75% RH for 6 weeks. The percentage of identified impurity peaks at the indicated RRT (relative retention time) values were determined under the challenge conditions versus a control sample stored at ambient temperature. RRT is calculated by dividing the retention time (RT) of the impurity by the RT of Form 2. Data at 70° C./5% RH and 70° C./75% RH for one week are provided in Table 14 and Table 15, respectively.
# [5] = Thermal stability by thermogravimetric analysis (TGA); settings: listed as Form 2 (monohydrate), monohydrate
# Procedure: Thermogravimetric analysis was conducted using a Discovery TGA (TA instruments) thermogravimetric analyzer. Samples of approximately 10 mg were weighed into aluminum pans and heated from ambient ([…]) to 250° C. at 10° C./minute heating rate under nitrogen purge (10 mL/min for both sample chamber and balance).
# as §1
# [6] = Competitive slurry experiments in 2-propanol/1% water; settings: based on the competition slurry experiments
# Procedure: Competitive slurry experiments were performed between Form 1 and Form 2 (Entry 1), and between Form 6 and Form 2 (Entry 2), in 2-propanol/1% water. Entry 1: […] The solids were collected with vacuum filtration and analyzed with PXRD. PXRD data was consistent with PF-07220060 monohydrate (Form 2). Entry 2: […] The solids were collected with vacuum filtration and analyzed with PXRD. PXRD data was consistent with PF-07220060 monohydrate (Form 2).
# [7] = UV/Fluor, 2x ICH light exposure
# [8] = control sample stored at ambient temperature
# [9] = stressed samples: 70° C./75% RH and 70° C./5% RH for one week, 40° C./75% RH and 40° C./5% RH for 6 weeks
smiles,measurement,setting,value
"CC(C)n1c(C(C)(C)O)nc2c(F)cc(-c3nc(N[C@@H]4CCOC[C@H]4O)ncc3Cl)cc21 [Form 2, 1,5-anhydro-3-({5-chloro-4-[4-fluoro-2-(2-hydroxypropan-2-yl)-1-(propan-2-yl)-1H-benzimidazol-6-yl]pyrimidin-2-yl}amino)-2,3-dideoxy-D-threo-pentitol monohydrate]",thermal stability relative to Form 1 and Form 8,[1]; TGA and DSC,improved thermal stability
same,Thermal stability via DSC (° C.),"[1]; listed as Form 2 (monohydrate), monohydrate",50 °C
same,form change at the completion of the moisture sorption run by PXRD,"[2]; 25° C., 60% RH",not detected
same,Weight gain (%),"[2]; 25 °C, RH 0%, listed as PF-07220060 monohydrate (Form 2), monohydrate",0.00%
same,Weight gain (%),"[2]; 25 °C, RH 10%, desorption, listed as PF-07220060 monohydrate (Form 2), monohydrate",0.54%
same,Weight gain (%),"[2]; 25 °C, RH 10%, sorption, listed as PF-07220060 monohydrate (Form 2), monohydrate",0.45%
same,Weight gain (%),"[2]; 25 °C, RH 20%, desorption, listed as PF-07220060 monohydrate (Form 2), monohydrate",0.55%
same,Weight gain (%),"[2]; 25 °C, RH 20%, sorption, listed as PF-07220060 monohydrate (Form 2), monohydrate",0.49%
same,Weight gain (%),"[2]; 25 °C, RH 30%, desorption, listed as PF-07220060 monohydrate (Form 2), monohydrate",0.56%
same,Weight gain (%),"[2]; 25 °C, RH 30%, sorption, listed as PF-07220060 monohydrate (Form 2), monohydrate",0.51%
same,Weight gain (%),"[2]; 25 °C, RH 40%, desorption, listed as PF-07220060 monohydrate (Form 2), monohydrate",0.57%
same,Weight gain (%),"[2]; 25 °C, RH 40%, sorption, listed as PF-07220060 monohydrate (Form 2), monohydrate",0.52%
same,Weight gain (%),"[2]; 25 °C, RH 50%, desorption, listed as PF-07220060 monohydrate (Form 2), monohydrate",0.58%
same,Weight gain (%),"[2]; 25 °C, RH 50%, sorption, listed as PF-07220060 monohydrate (Form 2), monohydrate",0.54%
same,Weight gain (%),"[2]; 25 °C, RH 60%, desorption, listed as PF-07220060 monohydrate (Form 2), monohydrate",0.60%
same,Weight gain (%),"[2]; 25 °C, RH 60%, sorption, listed as PF-07220060 monohydrate (Form 2), monohydrate",0.56%
same,Weight gain (%),"[2]; 25 °C, RH 70%, desorption, listed as PF-07220060 monohydrate (Form 2), monohydrate",0.60%
same,Weight gain (%),"[2]; 25 °C, RH 70%, sorption, listed as PF-07220060 monohydrate (Form 2), monohydrate",0.57%
same,Weight gain (%),"[2]; 25 °C, RH 80%, desorption, listed as PF-07220060 monohydrate (Form 2), monohydrate",0.61%
same,Weight gain (%),"[2]; 25 °C, RH 80%, sorption, listed as PF-07220060 monohydrate (Form 2), monohydrate",0.59%
same,Weight gain (%),"[2]; 25 °C, RH 90%, listed as PF-07220060 monohydrate (Form 2), monohydrate",0.62%
same,Weight gain (%),"[2]; 60 °C, RH 0% (initial drying step)",0.00%
same,"Weight Gain (%) at 25° C., 60% RH","[2]; comparative summary of Forms 1, 2, 6 and 8, monohydrate",<1%
same,hygroscopicity relative to Form 8 and Form 1,"[2]; moisture sorption at 25° C., 60% RH",reduced hygroscopicity
same,solid form change by PXRD,[3]; 2×CH condition,no form change
same,change in appearance compared to the dark control sample,[3]; 2×CH photostability sample,No significant change in appearance
same,growth of individual impurities,[3]; 2×CH photostability samples,≤ 0.2%
same,total impurities,[3]; 2×CH photostability samples,≤ 2.0%
same,% impurity RRT 0.74,[3]; Dark control (wrapped in foil),NMT = 0.05%
same,% impurity RRT 0.87,[3]; Dark control (wrapped in foil),0.06%
same,% impurity RRT 1.02,[3]; Dark control (wrapped in foil),NMT = 0.05%
same,% impurity RRT 1.33,[3]; Dark control (wrapped in foil),0.08%
same,% impurity RRT 0.74,[3]; [7],0.11%
same,% impurity RRT 0.87,[3]; [7],0.06%
same,% impurity RRT 1.02,[3]; [7],0.07%
same,% impurity RRT 1.33,[3]; [7],0.07%
same,% impurity RRT 0.89,[4]; 70° C./5% RH (one week),0.57%
same,% impurity RRT 1.31,[4]; 70° C./5% RH (one week),0.99%
same,% impurity RRT 0.89,[4]; 70° C./75% RH (one week),0.58%
same,% impurity RRT 1.31,[4]; 70° C./75% RH (one week),1.00%
same,% impurity RRT 0.89,[4]; [8],0.57%
same,% impurity RRT 1.31,[4]; [8],1.00%
same,change in appearance compared to the control sample,[4]; [9],No significant change in appearance
same,growth of individual impurities,[4]; [9],≤ 0.2%
same,total impurities,[4]; [9],≤ 2.0%
same,Thermal stability via TGA (° C.),[5],60 °C
same,relative humidity above which the form is thermodynamically stable,[6],above 15 % RH
